# Read-outs that look alike come from different tables or passages of the source.
# How the values were obtained:
# [1] = tested on: Key Broadleaf Weed and Crop Species; experiment: Post-emergent Test II herbicidal activity (Table 5); format: in vivo; conditions: post-emergence, 336 h, post-emergent, 14 days after application; for pest or weed control at 70 g/ha: 70 g ai/ha; for pest or weed control at 140 g/ha: 140 g ai/ha
# Outline: (§1)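 Compounds, dissolved in 97:3 acetone/DMSO and diluted into an aqueous carrier containing crop oil concentrate and Triton X-155, are applied over the top of young plants at 187 L/ha. Injury is scored visually at 14 d, 0% meaning no effect and 100% complete kill.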
# [2] = tested on: Key Grass and Sedge Weeds as well as Grass Crops; experiment: Post-emergent Test II herbicidal activity (Table 6); format: in vivo; conditions: post-emergence, 336 h; for pest or weed control at 70 g/ha: application rate 70 g ai/ha; for pest or weed control at 140 g/ha: application rate 140 g ai/ha
# Outline: as §1
# [3] = ABUTH: velvetleaf (Abutilon theophrasti), read-out: Visual Growth Reduction (%) 14 Days After Application ABUTH
# [4] = AMARE: redroot pigweed (Amaranthus retroflexus), read-out: Visual Growth Reduction (%) 14 Days After Application AMARE
# [5] = BRSNN: oilseed-rape, canola (Brassica napus), read-out: Visual Growth Reduction (%) 14 Days After Application BRSNN
# [6] = CHEAL: lambsquarters (Chenopodium album), read-out: Visual Growth Reduction (%) 14 Days After Application CHEAL
# [7] = EPHHL: wild poinsettia (Euphorbia heterophylla), read-out: Visual Growth Reduction (%) 14 Days After Application EPHHL
# [8] = HELAN: sunflower (Helianthus annuus), read-out: Visual Growth Reduction (%) 14 Days After Application HELAN
# [9] = VIOTR: wild pansy (Viola tricolor), read-out: Visual Growth Reduction (%) 14 Days After Application VIOTR
# [10] = Triticum aestivum, TRZSS (wheat), read-out: Visual Growth Reduction (%) 14 Days After Application, TRZSS
# [11] = CYPES: yellow nutsedge (Cyperus esculentus), read-out: Visual Growth Reduction (%) 14 Days After Application, CYPES
# [12] = DIGSA: crabgrass (Digitaria sanguinalis), read-out: Visual Growth Reduction (%) 14 Days After Application, DIGSA
# [13] = ECHCG: barnyardgrass (Echinochloa crus-galli), read-out: Visual Growth Reduction (%) 14 Days After Application, ECHCG
# [14] = ORYSA: rice (Oryza sativa), read-out: Visual Growth Reduction (%) 14 Days After Application, ORYSA
# [15] = SETFA: giant foxtail (Setaria faberi), read-out: Visual Growth Reduction (%) 14 Days After Application, SETFA
# [16] = SORVU: grain sorghum (Sorghum vulgare), read-out: Visual Growth Reduction (%) 14 Days After Application, SORVU
# [17] = ZEAMX: maize, corn (Zea mays), read-out: Visual Growth Reduction (%) 14 Days After Application, ZEAMX
SMILES,"pest or weed control at 70 g/ha [1, 3] [%]","pest or weed control at 140 g/ha [1, 3] [%]","pest or weed control at 70 g/ha [1, 4] [%]","pest or weed control at 140 g/ha [1, 4] [%]","pest or weed control at 70 g/ha [1, 5] [%]","pest or weed control at 140 g/ha [1, 5] [%]","pest or weed control at 70 g/ha [1, 6] [%]","pest or weed control at 140 g/ha [1, 6] [%]","pest or weed control at 70 g/ha [1, 7] [%]","pest or weed control at 140 g/ha [1, 7] [%]","pest or weed control at 70 g/ha [1, 8] [%]","pest or weed control at 140 g/ha [1, 8] [%]","pest or weed control at 70 g/ha [1, 9] [%]","pest or weed control at 140 g/ha [1, 9] [%]","pest or weed control at 70 g/ha [2, 10] [%]","pest or weed control at 140 g/ha [2, 10] [%]","pest or weed control at 70 g/ha [2, 11] [%]","pest or weed control at 140 g/ha [2, 11] [%]","pest or weed control at 70 g/ha [2, 12] [%]","pest or weed control at 140 g/ha [2, 12] [%]",further results
COc1c(N)nc(-c2cc(F)c(Br)cc2F)nc1C(=O)O [Compound 11],95 to 100,95 to 100,95 to 100,95 to 100,95 to 100,95 to 100,95 to 100,95 to 100,95 to 100,95 to 100,95 to 100,95 to 100,0 to 29,45 to 59,45 to 59,60 to 74,45 to 59,45 to 59,60 to 74,60 to 74,"pest or weed control at 70 g/ha [2, 13]: 85 to 94%; pest or weed control at 140 g/ha [2, 13]: 85 to 94%; pest or weed control at 70 g/ha [2, 14]: 0 to 29%; pest or weed control at 140 g/ha [2, 14]: 0 to 29%; pest or weed control at 70 g/ha [2, 15]: 60 to 74%; pest or weed control at 140 g/ha [2, 15]: 60 to 74%; pest or weed control at 70 g/ha [2, 16]: 60 to 74%; pest or weed control at 140 g/ha [2, 16]: 75 to 84%; pest or weed control at 70 g/ha [2, 17]: 60 to 74%; pest or weed control at 140 g/ha [2, 17]: 60 to 74%"
C=Cc1c(C(=O)OC)nc(-c2ccc(C(F)(F)F)c(F)c2)c(F)c1N [Compound 12],75 to 84,85 to 94,0 to 29,45 to 59,0 to 29,0 to 29,0 to 29,0 to 29,45 to 59,95 to 100,0 to 29,0 to 29,0 to 29,0 to 29,0 to 29,0 to 29,30 to 44,45 to 59,0 to 29,0 to 29,"pest or weed control at 70 g/ha [2, 13]: 0 to 29%; pest or weed control at 140 g/ha [2, 13]: 0 to 29%; pest or weed control at 70 g/ha [2, 14]: 0 to 29%; pest or weed control at 140 g/ha [2, 14]: 0 to 29%; pest or weed control at 70 g/ha [2, 15]: 0 to 29%; pest or weed control at 140 g/ha [2, 15]: 0 to 29%; pest or weed control at 70 g/ha [2, 16]: 0 to 29%; pest or weed control at 140 g/ha [2, 16]: 0 to 29%; pest or weed control at 70 g/ha [2, 17]: 0 to 29%; pest or weed control at 140 g/ha [2, 17]: 0 to 29%"
"COC(=O)c1nc(-c2ccc(I)c(F)c2)c(Cl)c(N)c1Cl [Compound 13, Methyl 4-amino-3,5-dichloro-6-(3-fluoro-4-iodophenyl)picolinate]",85 to 94,95 to 100,85 to 94,95 to 100,85 to 94,85 to 94,95 to 100,95 to 100,0 to 29,30 to 44,95 to 100,95 to 100,0 to 29,0 to 29,45 to 59,60 to 74,75 to 84,75 to 84,60 to 74,75 to 84,"pest or weed control at 70 g/ha [2, 13]: 60 to 74%; pest or weed control at 140 g/ha [2, 13]: 75 to 84%; pest or weed control at 70 g/ha [2, 14]: 0 to 29%; pest or weed control at 140 g/ha [2, 14]: 0 to 29%; pest or weed control at 70 g/ha [2, 15]: 45 to 59%; pest or weed control at 140 g/ha [2, 15]: 75 to 84%; pest or weed control at 70 g/ha [2, 16]: 85 to 94%; pest or weed control at 140 g/ha [2, 16]: 85 to 94%; pest or weed control at 70 g/ha [2, 17]: 60 to 74%; pest or weed control at 140 g/ha [2, 17]: 60 to 74%"
